Measured values as given in the supplement of paper PMC11208160.

Assay: recombinant UMI read abundance after kanamycin selection (control-corrected) (log10(CPM+1)); higher = more efficient recombination; extreme values may be limits of the assay; sequences stand for … in AGTGCAGAGAAAATCGGCCAGTTTTCTCTGCCTGCAGTCCGCATGCCGTGGGACCCCTTGGGTTCTAACCTGTTGCCTAGATTTATGCAGCGGACTGCCTTTCTCCCAAAGTGATAAACCGG…AGGTTGGTTTCACT; site = the 11-nt donor
In short: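 In a pooled Escherichia coli screen for the IS621 bridge recombinase, donor and donor-binding-loop pairs were each placed with a 12-nt UMI on a plasmid bearing a promoterless kanamycin gene. This library was co-electroporated with a target plasmid encoding a fixed target and T7-inducible recombinase, and cells were plated either on IPTG (0.07 mM) plus kanamycin or without selection, in two replicates each. Recombinant UMIs were PCR-amplified across the donor–target junction and sequenced, and counts were converted to CPM, averaged over replicates, scaled by control-derived factors and reported as log10(CPM+1).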
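Also: IS621 bridge recombinase in Escherichia coli cells against a fixed T5 target plasmid.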

Sequence | recombinant UMI read abundance (log10)
GTTCGAGCATGGACCGGTTTTCCCGGTAATCCGTATTTGGA (site GTTCGAGCTTG) | 0
GTTCGAGCATGGACCGGTTTTCCCGGTAATCCGTATTTGGA (site GTTCGAGCTTT) | 0.942
GTTCGATCATGGACCGGTTTTCCCGGTAATCCGTATTTGCC (site GTTCGATCTGG) | 1.92
GTTCGTACATGGACCGGTTTTCCCGGTAATCCGTATTTGCA (site GTTCGTACTTG) | 1.64
GTTCGTACATGGACCGGTTTTCCCGGTAATCCGTATTTGTT (site GTTCGTACTAA) | 0.0105
GTTCGTGCATGGACCGGTTTTCCCGGTAATCCGTATTTGCA (site GTTCGAGCTTG) | 0.585
GTTCGTGCATGGACCGGTTTTCCCGGTAATCCGTATTTGCA (site GTTCGCGCTTG) | 0.0038
GTTCGTGCATGGACCGGTTTTCCCGGTAATCCGTATTTGCA (site GTTCGGGCTTG) | 0.36
GTTCGTGCATGGACCGGTTTTCCCGGTAATCCGTATTTGCA (site GTTCGTGCTTG) | 1.96
GTTGAGACATGGACCGGTTTTCCCGGTAATCCGTATTTGAC (site GTTGAGACTGT) | 2.94
GTTGCTGCATGGACCGGTTTTCCCGGTAATCCGTATTTGAG (site GTTGCTGCTCT) | 0.388
GTTGGACCATGGACCGGTTTTCCCGGTAATCCGTATTTGCC (site GTTGGACCTGG) | 0
GTTGGCCCATGGACCGGTTTTCCCGGTAATCCGTATTTGAG (site GTTGGCCCTCT) | 0.0112
GTTGGGACATGGACCGGTTTTCCCGGTAATCCGTATTTGGC (site GTTGGGACTGC) | 1.53
GTTGGGGCATGGACCGGTTTTCCCGGTAATCCGTATTTGCG (site GTTGGGGCTCG) | 2.05
GTTGTACCATGGACCGGTTTTCCCGGTAATCCGTATTTGGT (site GTTGTACCTAC) | 0
GTTGTACCATGGACCGGTTTTCCCGGTAATCCGTATTTGGT (site GTTGTCCCTAC) | 0.0245
GTTGTACCATGGACCGGTTTTCCCGGTAATCCGTATTTGGT (site GTTGTGCCTAC) | 0.0127
GTTGTACCATGGACCGGTTTTCCCGGTAATCCGTATTTGGT (site GTTGTTCCTAC) | 0
GTTGTGCCATGGACCGGTTTTCCCGGTAATCCGTATTTGGT (site GTTGTACCTAC) | 0.00401
GTTGTGCCATGGACCGGTTTTCCCGGTAATCCGTATTTGGT (site GTTGTCCCTAC) | 0.0044
GTTGTGCCATGGACCGGTTTTCCCGGTAATCCGTATTTGGT (site GTTGTGCCTAC) | 0.0934
GTTGTGCCATGGACCGGTTTTCCCGGTAATCCGTATTTGGT (site GTTGTTCCTAC) | 0.0079

Sequence | recombinant UMI read abundance (log10)
GTTGTGGCATGGACCGGTTTTCCCGGTAATCCGTATTTGAG (site GTTGTGGCTCT) | 1.71
GTTGTTTCATGGACCGGTTTTCCCGGTAATCCGTATTTGGT (site GTTGTTACTAC) | 0.00963
GTTGTTTCATGGACCGGTTTTCCCGGTAATCCGTATTTGGT (site GTTGTTCCTAC) | 0.00733
GTTGTTTCATGGACCGGTTTTCCCGGTAATCCGTATTTGGT (site GTTGTTGCTAC) | 0.0146
GTTGTTTCATGGACCGGTTTTCCCGGTAATCCGTATTTGGT (site GTTGTTTCTAC) | 0.83
GTTTAAACATGGACCGGTTTTCCCGGTAATCCGTATTTGGA (site GTTTAAACTTC) | 0.655
GTTTAGGCATGGACCGGTTTTCCCGGTAATCCGTATTTGGC (site GTTTAGGCTGC) | 2.08
GTTTGCGCATGGACCGGTTTTCCCGGTAATCCGTATTTGGC (site GTTTGCGCTGC) | 2.03
GTTTGTTCATGGACCGGTTTTCCCGGTAATCCGTATTTGAT (site GTTTGTTCTAT) | 0.167
GTTTTTCCATGGACCGGTTTTCCCGGTAATCCGTATTTGGT (site GTTATTCCTAC) | 0.0038
GTTTTTCCATGGACCGGTTTTCCCGGTAATCCGTATTTGGT (site GTTCTTCCTAC) | 0.00946
GTTTTTCCATGGACCGGTTTTCCCGGTAATCCGTATTTGGT (site GTTGTTCCTAC) | 0.0239
GTTTTTCCATGGACCGGTTTTCCCGGTAATCCGTATTTGGT (site GTTTTTCCTAC) | 0
TAAAAGCCATGGACCGGTTTTCCCGGTAATCCGTATTTGAG (site TAAAAGCCTCT) | 0.525
TAAAATCCATGGACCGGTTTTCCCGGTAATCCGTATTTGTA (site TAAAATCCTTA) | 0
TAAAATCCATGGACCGGTTTTCCCGGTAATCCGTATTTGTA (site TAAACTCCTTA) | 1.43
TAAAATCCATGGACCGGTTTTCCCGGTAATCCGTATTTGTA (site TAAAGTCCTTA) | 0.431
TAAAATCCATGGACCGGTTTTCCCGGTAATCCGTATTTGTA (site TAAATTCCTTA) | 0
TAAACCCCATGGACCGGTTTTCCCGGTAATCCGTATTTGTA (site TAAACCCCTTA) | 1.33
TAAACTCCATGGACCGGTTTTCCCGGTAATCCGTATTTGTA (site TAAAATCCTTA) | 0.534
TAAACTCCATGGACCGGTTTTCCCGGTAATCCGTATTTGTA (site TAAACTCCTTA) | 1.32
TAAACTCCATGGACCGGTTTTCCCGGTAATCCGTATTTGTA (site TAAAGTCCTTA) | 0.221
TAAACTCCATGGACCGGTTTTCCCGGTAATCCGTATTTGTA (site TAAATTCCTTA) | 0

Sequence | recombinant UMI read abundance (log10)
TAAAGTCCATGGACCGGTTTTCCCGGTAATCCGTATTTGTA (site AAAAGTCCTTA) | 2.17
TAAAGTCCATGGACCGGTTTTCCCGGTAATCCGTATTTGTA (site CAAAGTCCTTA) | 0.47
TAAAGTCCATGGACCGGTTTTCCCGGTAATCCGTATTTGTA (site GAAAGTCCTTA) | 0.00467
TAAAGTCCATGGACCGGTTTTCCCGGTAATCCGTATTTGTA (site TAAAATCCTTA) | 0
TAAAGTCCATGGACCGGTTTTCCCGGTAATCCGTATTTGTA (site TAAACTCCTTA) | 0.531
TAAAGTCCATGGACCGGTTTTCCCGGTAATCCGTATTTGTA (site TAAAGACCTTA) | 0.00959
TAAAGTCCATGGACCGGTTTTCCCGGTAATCCGTATTTGTA (site TAAAGCCCTTA) | 0.452
TAAAGTCCATGGACCGGTTTTCCCGGTAATCCGTATTTGTA (site TAAAGGCCTTA) | 0.00572
TAAAGTCCATGGACCGGTTTTCCCGGTAATCCGTATTTGTA (site TAAAGTACTTA) | 0.459
TAAAGTCCATGGACCGGTTTTCCCGGTAATCCGTATTTGTA (site TAAAGTCCTAA) | 0.0143
TAAAGTCCATGGACCGGTTTTCCCGGTAATCCGTATTTGTA (site TAAAGTCCTCA) | 0.00255
TAAAGTCCATGGACCGGTTTTCCCGGTAATCCGTATTTGTA (site TAAAGTCCTGA) | 0
TAAAGTCCATGGACCGGTTTTCCCGGTAATCCGTATTTGTA (site TAAAGTCCTTA) | 0.722
TAAAGTCCATGGACCGGTTTTCCCGGTAATCCGTATTTGTA (site TAAAGTCCTTC) | 0.00609
TAAAGTCCATGGACCGGTTTTCCCGGTAATCCGTATTTGTA (site TAAAGTCCTTG) | 0.00546
TAAAGTCCATGGACCGGTTTTCCCGGTAATCCGTATTTGTA (site TAAAGTCCTTT) | 0.0573
TAAAGTCCATGGACCGGTTTTCCCGGTAATCCGTATTTGTA (site TAAAGTGCTTA) | 0.00484
TAAAGTCCATGGACCGGTTTTCCCGGTAATCCGTATTTGTA (site TAAAGTTCTTA) | 0.0051
TAAAGTCCATGGACCGGTTTTCCCGGTAATCCGTATTTGTA (site TAAATTCCTTA) | 0.812
TAAAGTCCATGGACCGGTTTTCCCGGTAATCCGTATTTGTA (site TAACGTCCTTA) | 0.243
TAAAGTCCATGGACCGGTTTTCCCGGTAATCCGTATTTGTA (site TAAGGTCCTTA) | 0.198
TAAAGTCCATGGACCGGTTTTCCCGGTAATCCGTATTTGTA (site TAATGTCCTTA) | 0.0108
